Assay results published in patent US9775898B2, “Vaccine composition comprising an immunogenic protein and combination adjuvants for use in eliciting antigen-specific T-cell responses” (TheVax Genetics Vaccine Co., Ltd., priority 2015, dated 2017).

What was measured:
[1] = tested on: E7 antigen specific immune response; assay: Immunogenicity analysis of different immunogenic composition (humoral and cell mediated); assay type: in vivo; details: mice
CD91 = CD91 (Homo sapiens, UniProt Q07954); details: read-out: binding affinity to CD91 (Kd); cited from earlier work
Sequence of CD91 (Q07954 20-4544, species assumed): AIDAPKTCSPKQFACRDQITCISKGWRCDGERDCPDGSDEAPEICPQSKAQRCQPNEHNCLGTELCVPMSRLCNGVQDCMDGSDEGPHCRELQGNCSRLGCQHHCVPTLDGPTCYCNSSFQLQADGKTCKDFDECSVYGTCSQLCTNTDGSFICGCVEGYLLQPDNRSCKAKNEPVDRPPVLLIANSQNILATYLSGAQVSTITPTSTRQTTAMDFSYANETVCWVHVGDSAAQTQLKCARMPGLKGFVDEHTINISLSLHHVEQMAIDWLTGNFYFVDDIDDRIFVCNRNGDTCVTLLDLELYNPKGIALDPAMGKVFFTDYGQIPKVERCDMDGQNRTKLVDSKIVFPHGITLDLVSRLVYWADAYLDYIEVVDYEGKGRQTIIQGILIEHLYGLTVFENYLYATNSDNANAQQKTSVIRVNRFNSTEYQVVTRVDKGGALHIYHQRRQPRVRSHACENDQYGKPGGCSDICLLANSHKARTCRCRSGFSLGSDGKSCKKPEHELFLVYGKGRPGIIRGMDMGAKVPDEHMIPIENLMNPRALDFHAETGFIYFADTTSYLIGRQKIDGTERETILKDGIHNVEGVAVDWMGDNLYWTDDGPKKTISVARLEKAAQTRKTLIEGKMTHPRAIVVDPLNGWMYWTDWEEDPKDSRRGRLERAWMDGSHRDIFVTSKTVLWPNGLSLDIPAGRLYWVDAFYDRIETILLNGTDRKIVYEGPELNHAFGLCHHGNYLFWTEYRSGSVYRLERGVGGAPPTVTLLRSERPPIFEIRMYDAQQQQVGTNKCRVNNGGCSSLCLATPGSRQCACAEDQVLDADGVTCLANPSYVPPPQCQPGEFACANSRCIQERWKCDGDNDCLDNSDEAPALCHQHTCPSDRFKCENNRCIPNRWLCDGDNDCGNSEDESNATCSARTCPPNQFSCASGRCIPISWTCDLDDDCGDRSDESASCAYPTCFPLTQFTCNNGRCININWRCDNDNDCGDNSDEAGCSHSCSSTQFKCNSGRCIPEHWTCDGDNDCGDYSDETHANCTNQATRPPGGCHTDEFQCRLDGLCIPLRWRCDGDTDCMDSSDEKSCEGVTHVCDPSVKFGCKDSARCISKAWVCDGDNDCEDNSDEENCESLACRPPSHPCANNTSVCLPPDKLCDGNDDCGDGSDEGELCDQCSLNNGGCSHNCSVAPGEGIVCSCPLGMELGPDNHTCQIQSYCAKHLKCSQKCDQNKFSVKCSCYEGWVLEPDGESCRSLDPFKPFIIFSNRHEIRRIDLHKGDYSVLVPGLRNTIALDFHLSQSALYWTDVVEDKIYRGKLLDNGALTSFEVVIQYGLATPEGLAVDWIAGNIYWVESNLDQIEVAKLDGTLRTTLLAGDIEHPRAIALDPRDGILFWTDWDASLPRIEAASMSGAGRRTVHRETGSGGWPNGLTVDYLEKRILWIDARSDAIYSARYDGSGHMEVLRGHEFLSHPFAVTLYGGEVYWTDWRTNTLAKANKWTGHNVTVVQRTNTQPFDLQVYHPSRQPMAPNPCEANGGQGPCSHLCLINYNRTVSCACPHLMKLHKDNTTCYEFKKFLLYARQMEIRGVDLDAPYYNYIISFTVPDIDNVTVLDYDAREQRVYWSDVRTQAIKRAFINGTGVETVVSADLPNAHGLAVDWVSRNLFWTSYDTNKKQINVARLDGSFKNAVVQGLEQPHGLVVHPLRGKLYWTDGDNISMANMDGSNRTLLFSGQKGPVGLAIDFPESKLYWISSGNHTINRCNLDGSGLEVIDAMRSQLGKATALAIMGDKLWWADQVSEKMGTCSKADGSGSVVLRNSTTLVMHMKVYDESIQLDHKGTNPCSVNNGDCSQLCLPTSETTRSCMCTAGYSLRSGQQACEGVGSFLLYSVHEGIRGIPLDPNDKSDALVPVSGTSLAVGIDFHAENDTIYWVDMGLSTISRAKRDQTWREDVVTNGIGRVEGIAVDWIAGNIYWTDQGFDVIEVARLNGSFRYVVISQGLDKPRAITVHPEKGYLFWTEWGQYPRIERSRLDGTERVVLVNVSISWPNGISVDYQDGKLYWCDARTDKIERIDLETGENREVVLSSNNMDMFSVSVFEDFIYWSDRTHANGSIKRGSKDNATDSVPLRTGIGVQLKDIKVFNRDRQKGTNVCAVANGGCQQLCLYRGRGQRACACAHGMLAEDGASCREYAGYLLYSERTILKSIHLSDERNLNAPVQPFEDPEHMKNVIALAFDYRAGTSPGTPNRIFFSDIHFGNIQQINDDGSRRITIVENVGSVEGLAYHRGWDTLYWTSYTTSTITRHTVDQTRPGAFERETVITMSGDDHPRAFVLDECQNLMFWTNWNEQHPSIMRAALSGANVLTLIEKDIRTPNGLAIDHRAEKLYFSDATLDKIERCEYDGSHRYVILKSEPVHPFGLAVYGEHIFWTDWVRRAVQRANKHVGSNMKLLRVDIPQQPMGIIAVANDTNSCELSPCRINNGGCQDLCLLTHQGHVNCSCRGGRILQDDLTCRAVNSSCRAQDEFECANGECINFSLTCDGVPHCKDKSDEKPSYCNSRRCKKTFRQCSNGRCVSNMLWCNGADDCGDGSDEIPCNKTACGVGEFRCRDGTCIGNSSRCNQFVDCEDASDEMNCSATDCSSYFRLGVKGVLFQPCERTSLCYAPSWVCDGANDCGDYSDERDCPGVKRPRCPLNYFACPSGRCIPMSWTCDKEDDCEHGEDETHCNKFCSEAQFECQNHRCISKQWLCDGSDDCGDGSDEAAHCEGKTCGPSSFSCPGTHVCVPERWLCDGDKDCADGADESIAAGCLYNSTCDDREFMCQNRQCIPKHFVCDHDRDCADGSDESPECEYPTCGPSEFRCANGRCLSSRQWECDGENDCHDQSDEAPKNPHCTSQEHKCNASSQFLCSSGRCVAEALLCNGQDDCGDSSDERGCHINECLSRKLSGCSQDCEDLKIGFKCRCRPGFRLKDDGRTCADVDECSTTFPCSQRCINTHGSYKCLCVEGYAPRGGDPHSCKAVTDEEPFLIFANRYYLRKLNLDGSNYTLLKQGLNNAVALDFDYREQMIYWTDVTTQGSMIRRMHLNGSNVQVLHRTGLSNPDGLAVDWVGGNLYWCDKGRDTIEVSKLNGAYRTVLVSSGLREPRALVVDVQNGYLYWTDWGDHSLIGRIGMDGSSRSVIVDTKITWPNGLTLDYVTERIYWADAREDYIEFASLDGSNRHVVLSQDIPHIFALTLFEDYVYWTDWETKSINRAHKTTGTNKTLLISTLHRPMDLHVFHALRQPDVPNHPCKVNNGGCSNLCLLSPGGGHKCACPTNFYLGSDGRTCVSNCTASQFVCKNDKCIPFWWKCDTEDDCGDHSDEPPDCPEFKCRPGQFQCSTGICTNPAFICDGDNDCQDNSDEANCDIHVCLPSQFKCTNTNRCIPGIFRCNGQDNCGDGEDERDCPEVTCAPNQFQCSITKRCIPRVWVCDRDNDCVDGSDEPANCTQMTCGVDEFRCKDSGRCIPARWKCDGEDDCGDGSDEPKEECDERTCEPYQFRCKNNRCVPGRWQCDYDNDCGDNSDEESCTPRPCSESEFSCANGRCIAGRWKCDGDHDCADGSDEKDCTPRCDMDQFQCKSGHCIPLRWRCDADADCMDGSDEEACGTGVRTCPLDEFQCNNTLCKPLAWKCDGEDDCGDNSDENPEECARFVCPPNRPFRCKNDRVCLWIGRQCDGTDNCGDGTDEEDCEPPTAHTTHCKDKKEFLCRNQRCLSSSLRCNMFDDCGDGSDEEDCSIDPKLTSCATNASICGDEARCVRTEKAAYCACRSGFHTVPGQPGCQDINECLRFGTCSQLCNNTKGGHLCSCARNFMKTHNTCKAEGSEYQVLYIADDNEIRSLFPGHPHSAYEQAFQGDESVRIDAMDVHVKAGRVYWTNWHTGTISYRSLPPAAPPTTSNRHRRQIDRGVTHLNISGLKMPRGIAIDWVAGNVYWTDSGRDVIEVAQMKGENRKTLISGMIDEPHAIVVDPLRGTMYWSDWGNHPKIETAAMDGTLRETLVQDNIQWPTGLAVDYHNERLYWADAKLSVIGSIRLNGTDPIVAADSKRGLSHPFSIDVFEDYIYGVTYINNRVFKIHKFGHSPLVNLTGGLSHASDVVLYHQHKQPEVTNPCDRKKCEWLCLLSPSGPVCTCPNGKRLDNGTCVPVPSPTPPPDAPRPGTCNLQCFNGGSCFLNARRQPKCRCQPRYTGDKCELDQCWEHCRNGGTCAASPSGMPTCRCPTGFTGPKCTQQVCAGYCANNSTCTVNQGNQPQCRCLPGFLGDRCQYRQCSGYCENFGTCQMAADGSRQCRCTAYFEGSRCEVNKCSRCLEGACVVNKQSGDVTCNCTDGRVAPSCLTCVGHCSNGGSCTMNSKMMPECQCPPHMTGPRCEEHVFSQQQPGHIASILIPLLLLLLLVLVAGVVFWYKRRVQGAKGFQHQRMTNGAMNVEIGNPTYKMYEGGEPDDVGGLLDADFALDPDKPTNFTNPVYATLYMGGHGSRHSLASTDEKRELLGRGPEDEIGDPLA

Substance: E7 antigen: HPV16 E7 protein (full length), SEQ ID NO: 21, antigen itself only
- E7 antigen specific cell mediated immune response ([1]; combined with GPI-0100 or QS-21): weak to strong

Substance: QS-21 [reference compound]
- adjuvant comparison for stimulating both humoral and cell mediated immune responses ([1]; with E7 immunogenic proteins, compared with alum): better adjuvants

Substance: RAP1: 39 kDa ER resident protein and molecular chaperone for LDL receptor-related protein
- Kd (CD91): ~3 nM
